# Data reported in patent publication US20040006142A1, “Ocular tension depressor” (priority 2002, published 2004).
# Assay: Ocular tension (IOP) lowering in rabbits after eye drop, Tonopen XL tonometer
# Assay type: in vivo, Rabbits (New Zealand albino)
# Conditions: eye drop of 0.5% preparation, 50 μL; for AUC0-8 hr Δ IOP % mean ± S.D.: IOP before, 2.5 h and 8 h after treatment, trapezoidal rule, change relative to pre-treatment; for ocular tension compared with the control group: p < 0.05 vs medium control
# Procedure: Rabbits (New Zealand albino, body weight: 2.0 to 2.5 kg) having ocular tension of 15 mmHg before treated were used in this experiment. Experimental group of the rabbits were treated with an eye drop of the preparation of a 0.5% concentration of the compounds A and B with a dosage of 50 μL at a time. Control group of the rabbits were treated with an eye drop of a medium (ophthalmic solutions containing 0.40% of NaH2PO4, 0.47% of NaHPO4, 0.47% of NaCl, and 1.0% of polysorbate 80 with pH 6.8) with the same dosage as in the experimental group at a time. The ocular tension of the experimental group and the control group was measured with a Tonopen™ XL tonometer before treatment, 2.5 hours, and 8 hours after treatment.
# Next, a ratio of ocular tension change relative to ocular tension measured before treatment (Δ IOP %) was calculated, and an area (AUC0-8hr Δ IOP %) defined by the area under the curve obtained by plotting out Δ IOP % with respect to the horizontal axis representing lapse of time was calculated in accordance with a method of trapezoidal rule.
Compound,AUC0-8 hr Δ IOP % mean ± S.D.,ocular tension compared with the control group
"COc1cc(C(=O)N(C)c2ccc(C)cc2OCCCCCC(=O)N2CCN(C)CC2)ccc1NC(=O)c1ccccc1OCCCN [Compound A, 4-[2-(3-aminopropyl-1-yl)oxy]benzoylamino-3-methoxy-N-methyl-N-{4-methyl-2-[5-(4-methylpiperazin-1-yl)carbonylpent-1-yloxy]phenyl}benzamide]",−147.0 ± 89.0 %,significantly lowered
"Cc1ccc(-c2ccccc2C(=O)Nc2ccc(C(=O)N3CCC(=O)N(CC(=O)N4CCN(C)CC4)c4ccccc43)cc2)cc1 [Compound B, 5-{4-[2-(4-methylphenyl)benzoylamino]benzoyl}-1-[(4-methyl-1-piperazinyl)carbonylmethyl]-1,3,4,5-tetrahydro-1,5-benzodi azepin-2(2H)-one]",−145.8 ± 87.7 %,significantly lowered
